# From patent US6723753B2, “Substituted n-benzyl-n-phenyl aminoalcohol compounds useful for inhibiting cholesteryl ester transfer protein activity” (Pharmacia Corporation, priority 2002, dated 2004)
# Target: T1, CETP (Homo sapiens, UniProt P11597)
# T1 sequence (P11597 18-493): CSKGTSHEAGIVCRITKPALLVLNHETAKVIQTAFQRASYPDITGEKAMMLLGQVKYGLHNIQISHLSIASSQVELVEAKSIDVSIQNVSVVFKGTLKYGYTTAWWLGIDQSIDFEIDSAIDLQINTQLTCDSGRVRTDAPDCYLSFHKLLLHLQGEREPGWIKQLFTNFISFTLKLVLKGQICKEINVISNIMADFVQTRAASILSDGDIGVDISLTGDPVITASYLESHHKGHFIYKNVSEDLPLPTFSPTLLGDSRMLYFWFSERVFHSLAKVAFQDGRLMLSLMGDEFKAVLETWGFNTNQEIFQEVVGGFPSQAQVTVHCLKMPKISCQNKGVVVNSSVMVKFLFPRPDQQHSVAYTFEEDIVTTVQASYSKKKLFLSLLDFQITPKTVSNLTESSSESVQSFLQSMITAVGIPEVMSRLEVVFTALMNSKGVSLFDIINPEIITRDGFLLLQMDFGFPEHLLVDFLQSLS
# Experiment: Assay of CETP Inhibition using Purified Components (Reconstituted Buffer Assay)
# Type: biochemical
# Set-up: made in house; host or cells: CHO cells (serum-free conditioned medium)
# Details: Inhibition of CETP activity in reconstituted buffer assay; transfer of [3H]CE from HDL to LDL; read-out: IC50
# In short: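 Purified human recombinant CETP from transfected CHO cells was incubated with [^3H]CE-labeled HDL donor and LDL acceptor in Tris pH 7.4/NaCl/EDTA/1% BSA buffer for 2 h at 37 °C. LDL was then precipitated with dextran sulfate/MgCl2, filtered, and counted by liquid scintillation to give IC50 for CE transfer.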
row,IC50 [nM],Compound
1,3000,COC(=O)c1ccc(COc2cccc(N(Cc3cccc(OC(F)(F)C(F)F)c3)CC(O)C(F)(F)F)c2)cc1 (centres unmarked) [Example 388]
2,1400,OC(CN(Cc1cccc(OC(F)(F)C(F)F)c1)c1cccc(OCc2c(F)cc(F)cc2F)c1)C(F)(F)F (centres unmarked) [Example 392]
3,3100,OC(CN(Cc1cccc(OC(F)(F)C(F)F)c1)c1cccc(OCc2c(F)cccc2F)c1)C(F)(F)F (centres unmarked) [Example 394]
4,1500,OC(CN(Cc1cccc(OC(F)(F)C(F)F)c1)c1cccc(OCc2ccccc2Br)c1)C(F)(F)F (centres unmarked) [Example 403]
5,1400,OC(CN(Cc1cccc(OC(F)(F)C(F)F)c1)c1cccc(OCc2cccc(F)c2)c1)C(F)(F)F (centres unmarked) [Example 406]
6,750,OC(CN(Cc1cccc(OC(F)(F)C(F)F)c1)c1cccc(OCc2cc(F)cc(F)c2F)c1)C(F)(F)F (centres unmarked) [Example 408]
7,610,OC(CN(Cc1cccc(OC(F)(F)C(F)F)c1)c1cccc(OCc2ccc(SC(F)(F)F)cc2)c1)C(F)(F)F (centres unmarked) [Example 409]
8,17000,OC(CN(Cc1cccc(OC(F)(F)C(F)F)c1)c1cccc(OCc2ccc(OCc3ccccc3)cc2)c1)C(F)(F)F (centres unmarked) [Example 413]
9,17000,Cc1c(COc2cccc(N(Cc3cccc(OC(F)(F)C(F)F)c3)CC(O)C(F)(F)F)c2)cccc1[N+](=O)[O-] (centres unmarked) [Example 417]
10,130,Cc1cc(C)cc(COc2cccc(N(Cc3cccc(OC(F)(F)C(F)F)c3)CC(O)C(F)(F)F)c2)c1 (centres unmarked) [Example 423]
11,780,OC(CN(Cc1cccc(OC(F)(F)C(F)F)c1)c1cccc(OCc2ccc(Cl)cc2)c1)C(F)(F)F (centres unmarked) [Example 424]
12,340,Cc1cccc(COc2cccc(N(Cc3cccc(OC(F)(F)C(F)F)c3)CC(O)C(F)(F)F)c2)c1F (centres unmarked) [Example 425]
13,2500,OC(CN(Cc1cccc(OC(F)(F)C(F)F)c1)c1cccc(OCc2cccc(Oc3ccccc3)c2)c1)C(F)(F)F (centres unmarked) [Example 426]
14,420,CC(C)c1ccc(COc2cccc(N(Cc3cccc(OC(F)(F)C(F)F)c3)CC(O)C(F)(F)F)c2)cc1 (centres unmarked) [Example 427]
15,6800,OC(CN(Cc1cccc(OC(F)(F)C(F)F)c1)c1cccc(OCc2cccnc2)c1)C(F)(F)F (centres unmarked) [Example 428]
16,> 50000,OC(CN(Cc1cccc(OC(F)(F)C(F)F)c1)c1cccc(OCc2nccn2Cc2ccccc2)c1)C(F)(F)F (centres unmarked) [Example 430]
17,12000,OC(CN(Cc1cccc(OC(F)(F)C(F)F)c1)c1cccc(OCc2csc3ccc(Cl)cc23)c1)C(F)(F)F (centres unmarked) [Example 431]
18,> 50000,"Nc1ccc(COc2cccc(N(Cc3cccc(OC(F)(F)C(F)F)c3)CC(O)C(F)(F)F)c2)cc1 (centres unmarked) [Example 434, 3-[[3-[(4-aminophenyl)methoxy]phenyl][[3-(1,1,2,2-tetrafluoro-ethoxy)phenyl]methyl]amino]-1,1,1-trifluoro-2-propanol]"
19,6400,"Nc1cccc(COc2cccc(N(Cc3cccc(OC(F)(F)C(F)F)c3)CC(O)C(F)(F)F)c2)c1 (centres unmarked) [Example 434B, 3-[[3-[(3-aminophenyl)methoxy]phenyl][[3-(1,1,2,2-tetrafluoro-ethoxy)-phenyl]methyl]amino]-1,1,1-trifluoro-2-propanol]"
20,1200,N#Cc1ncccc1Oc1cccc(N(Cc2cccc(OC(F)(F)C(F)F)c2)CC(O)C(F)(F)F)c1 (centres unmarked) [Example 441]
21,1500,OC(CN(Cc1cccc(OC(F)(F)C(F)F)c1)c1cccc(Oc2ncccc2C(F)(F)F)c1)C(F)(F)F (centres unmarked) [Example 444]
22,1200,OC(CN(Cc1cccc(OC(F)(F)C(F)F)c1)c1cccc(Oc2ccc(Br)cn2)c1)C(F)(F)F (centres unmarked) [Example 446]
23,13000,"OC(CN(Cc1cccc(OC(F)(F)C(F)F)c1)c1cccc(-c2ccccn2)c1)C(F)(F)F (centres unmarked) [Example 451, 3-[[3-(2-pyridinyl)phenyl][[3-(1,1,2,2-tetrafluoroethoxy)phenyl]methyl]amino]-1,1,1-trifluoro-2-propanol]"
24,2700,OC(CN(Cc1cccc(OC(F)(F)C(F)F)c1)c1cccc(-c2cccs2)c1)C(F)(F)F (centres unmarked) [Example 452]
25,8000,OC(CN(Cc1cccc(OC(F)(F)C(F)F)c1)c1cccc(-c2ccco2)c1)C(F)(F)F (centres unmarked) [Example 453]
26,4600,OC(CN(Cc1cccc(OC(F)(F)C(F)F)c1)c1cccc(-c2cccnc2)c1)C(F)(F)F (centres unmarked) [Example 454]
27,13000,CCCCNC(=O)c1cccc(N(Cc2cccc(OC(F)(F)C(F)F)c2)CC(O)C(F)(F)F)c1 (centres unmarked) [Example 458]
28,3300,O=C(NC1CCCCC1)c1cccc(N(Cc2cccc(OC(F)(F)C(F)F)c2)CC(O)C(F)(F)F)c1 (centres unmarked) [Example 459]
29,12000,CC(C)(C)CNC(=O)c1cccc(N(Cc2cccc(OC(F)(F)C(F)F)c2)CC(O)C(F)(F)F)c1 (centres unmarked) [Example 462]
30,3000,O=C(NCC(F)(F)C(F)(F)C(F)(F)F)c1cccc(N(Cc2cccc(OC(F)(F)C(F)F)c2)CC(O)C(F)(F)F)c1 (centres unmarked) [Example 464]

# The next lines start with the compound.
row,Compound,IC50 [nM]
1,OC(CN(Cc1cccc(OC(F)(F)C(F)F)c1)c1cccc(OCc2ccc(F)c(F)c2)c1)C(F)(F)F (centres unmarked) [Example 398],1100
2,OC(CN(Cc1cccc(OC(F)(F)C(F)F)c1)c1cccc(OCc2ccccc2Cl)c1)C(F)(F)F (centres unmarked) [Example 404],2100
3,COc1cccc(COc2cccc(N(Cc3cccc(OC(F)(F)C(F)F)c3)CC(O)C(F)(F)F)c2)c1 (centres unmarked) [Example 407],1500
4,OC(CN(Cc1cccc(OC(F)(F)C(F)F)c1)c1cccc(OCc2ccc(F)c(C(F)(F)F)c2)c1)C(F)(F)F (centres unmarked) [Example 412],710
5,OC(CN(Cc1cccc(OC(F)(F)C(F)F)c1)c1cccc(OCc2ccc(-c3ccccc3)cc2)c1)C(F)(F)F (centres unmarked) [Example 414],4600
6,CCc1ccc(COc2cccc(N(Cc3cccc(OC(F)(F)C(F)F)c3)CC(O)C(F)(F)F)c2)cc1 (centres unmarked) [Example 415],290
7,OC(CN(Cc1cccc(OC(F)(F)C(F)F)c1)c1cccc(OCc2ccc(C(F)(F)F)cc2)c1)C(F)(F)F (centres unmarked) [Example 416],510
8,Cc1ccc(COc2cccc(N(Cc3cccc(OC(F)(F)C(F)F)c3)CC(O)C(F)(F)F)c2)cc1C (centres unmarked) [Example 419],190
9,OC(CN(Cc1cccc(OC(F)(F)C(F)F)c1)c1cccc(OCc2cccc(Cl)c2)c1)C(F)(F)F (centres unmarked) [Example 420],270
10,OC(CN(Cc1cccc(OC(F)(F)C(F)F)c1)c1cccc(OCc2ccc(Br)cc2)c1)C(F)(F)F (centres unmarked) [Example 421],490
11,OC(CN(Cc1cccc(OC(F)(F)C(F)F)c1)c1cccc(OCc2cc(Cl)cc(Cl)c2)c1)C(F)(F)F (centres unmarked) [Example 422],920
12,OC(CN(Cc1cccc(OC(F)(F)C(F)F)c1)c1cccc(OCc2ccncc2)c1)C(F)(F)F (centres unmarked) [Example 433],5600
13,"O=C(O)c1cccc(COc2cccc(N(Cc3cccc(OC(F)(F)C(F)F)c3)CC(O)C(F)(F)F)c2)c1 (centres unmarked) [Example 435, 3-[[3-[[[3-(1,1,2,2-tetrafluoroethoxy)phenyl]methyl](3,3,3-trifluoro-2-hydroxypropyl)amino]phenoxy]methyl]benzoic Acid]",> 50000
14,CC(C)(C)c1ccc(Oc2cccc(N(Cc3cccc(OC(F)(F)C(F)F)c3)CC(O)C(F)(F)F)c2)cc1 (centres unmarked) [Example 437],2200
15,O=C(O)c1cncc(Oc2cccc(N(Cc3cccc(OC(F)(F)C(F)F)c3)CC(O)C(F)(F)F)c2)c1 (centres unmarked) [Example 442],1100
16,OC(CN(Cc1cccc(OC(F)(F)C(F)F)c1)c1cccc(Oc2cc(F)ccn2)c1)C(F)(F)F (centres unmarked) [Example 443],> 50000
17,OC(CN(Cc1cccc(OC(F)(F)C(F)F)c1)c1cccc(Oc2ccc(C(F)(F)F)cn2)c1)C(F)(F)F (centres unmarked) [Example 445],2800
18,OC(CN(Cc1cccc(OC(F)(F)C(F)F)c1)c1cccc(Oc2cncnc2)c1)C(F)(F)F (centres unmarked) [Example 449],3900
19,"CCNc1ccc(Oc2cccc(N(Cc3cccc(OC(F)(F)C(F)F)c3)CC(O)C(F)(F)F)c2)cc1 (centres unmarked) [Example 450B, 3-[[3-[4-(ethylamino)phenoxy]phenyl][[3-(1,1,2,2-tetrafluoroethoxy)phenyl]methyl]amino]-1,1,1-trifluoro-2-propanol]",1100
20,Cc1cccnc1-c1cccc(N(Cc2cccc(OC(F)(F)C(F)F)c2)CC(O)C(F)(F)F)c1 (centres unmarked) [Example 455],22000
21,"CCOC(=O)c1cccc(N(Cc2cccc(OC(F)(F)C(F)F)c2)CC(O)C(F)(F)F)c1 (centres unmarked) [Example 456B, ethyl 3-[[[3-(1,1,2,2-tetra-fluoroethoxy)phenyl]methyl](3,3,3-trifluoro-2-hydroxypropyl)amino]-benzoate]",1500
22,O=C(c1cccc(N(Cc2cccc(OC(F)(F)C(F)F)c2)CC(O)C(F)(F)F)c1)N1CCCCC1 (centres unmarked) [Example 456],9200
23,CC(C)NC(=O)c1cccc(N(Cc2cccc(OC(F)(F)C(F)F)c2)CC(O)C(F)(F)F)c1 (centres unmarked) [Example 457],13000
24,CC(C)(C)NC(=O)c1cccc(N(Cc2cccc(OC(F)(F)C(F)F)c2)CC(O)C(F)(F)F)c1 (centres unmarked) [Example 460],3000
25,O=C(NC1CCCC1)c1cccc(N(Cc2cccc(OC(F)(F)C(F)F)c2)CC(O)C(F)(F)F)c1 (centres unmarked) [Example 461],13000
26,O=C(NCC(F)(F)F)c1cccc(N(Cc2cccc(OC(F)(F)C(F)F)c2)CC(O)C(F)(F)F)c1 (centres unmarked) [Example 463],13000
